Results taken from PubChem BioAssay (NCI).
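Growth conditions: 96-well plates. Treatment: test compound, 48 hours, 5 concentrations. Analysis: linear interpolation between bracketing concentrations; unreached endpoints set to highest concentration. Abbreviation: GI50, concentration required for 50% inhibition of growth. TGI: total growth inhibition.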

Assays:
Test in all cases: inhibition of tumour cell growth, NCI panel, 48 h
[1] = test system: MOLT-4 leukemia
[2] = test system: NCI-H226 lung
[3] = test system: NCI-H23 lung
[4] = test system: NCI-H460 lung
[5] = test system: NCI-H522 lung
[6] = test system: OVCAR-3 ovarian
[7] = test system: OVCAR-4 ovarian
[8] = test system: OVCAR-5 ovarian
[9] = test system: OVCAR-8 ovarian
[10] = test system: PC-3 prostate
[11] = test system: RPMI-8226 leukemia
[12] = test system: RXF 393 renal
[13] = test system: SF-268 CNS
[14] = test system: SF-295 CNS
[15] = test system: SF-539 CNS
[16] = test system: SK-MEL-2 melanoma
[17] = test system: SK-MEL-28 melanoma
[18] = test system: SK-MEL-5 melanoma
[19] = test system: SK-OV-3 ovarian
[20] = test system: SN12C renal
[21] = test system: SNB-19 CNS
[22] = test system: SR leukemia
[23] = test system: SW-620 colon
[24] = test system: T-47D breast
[25] = test system: TK-10 renal
[26] = test system: U251 CNS
[27] = test system: UACC-257 melanoma
[28] = test system: UACC-62 melanoma
[29] = test system: UO-31 renal

**Q.** `Cn1cc(-c2cc(N)n3nc(-c4c[nH]c5ccc(F)cc45)cc3n2)c2cc(Br)cnc21` was tested. Which TGI [1] did it give?
**A.** Its TGI is 21.6 µM.

**Q.** And the GI50 [2]?
**A.** The GI50 was 24.3 µM.

**Q.** What about the TGI [2] of the same molecule?
**A.** The TGI was greater than 100 µM.

**Q.** What about the GI50 [3] of the same molecule?
**A.** Its GI50 is 75.3 µM.

**Q.** And the TGI [3]?
**A.** The TGI was greater than 100 µM.

**Q.** And the GI50 [4]?
**A.** Its GI50 is 6.63 µM.

**Q.** And the TGI [4]?
**A.** The TGI was 24.8 µM.

**Q.** And the GI50 [5]?
**A.** Its GI50 is 5.77 µM.

**Q.** And the TGI [5]?
**A.** The TGI was 40.4 µM.

**Q.** And the GI50 [6]?
**A.** Its GI50 is greater than 100 µM.

**Q.** What about the TGI [6] of the same molecule?
**A.** Its TGI is greater than 100 µM.

**Q.** What about the GI50 [7] of the same molecule?
**A.** Its GI50 is 22.5 µM.

**Q.** What about the TGI [7] of the same molecule?
**A.** Its TGI is greater than 100 µM.

**Q.** And the GI50 [8]?
**A.** The GI50 was 21.9 µM.

**Q.** And the TGI [8]?
**A.** The TGI was greater than 100 µM.

**Q.** What about the GI50 [9] of the same molecule?
**A.** The GI50 was 16.8 µM.

**Q.** What about the TGI [9] of the same molecule?
**A.** Its TGI is 69.6 µM.

**Q.** What about the GI50 [10] of the same molecule?
**A.** The GI50 was 11.4 µM.

**Q.** And the TGI [10]?
**A.** The TGI was greater than 100 µM.

**Q.** What about the GI50 [11] of the same molecule?
**A.** The GI50 was 5.67 µM.

**Q.** And the TGI [11]?
**A.** The TGI was 48.5 µM.

**Q.** And the GI50 [12]?
**A.** Its GI50 is 2.63 µM.

**Q.** And the TGI [12]?
**A.** The TGI was 8.47 µM.

**Q.** And the GI50 [13]?
**A.** The GI50 was greater than 100 µM.

**Q.** And the TGI [13]?
**A.** Its TGI is greater than 100 µM.

**Q.** What about the GI50 [14] of the same molecule?
**A.** Its GI50 is 9.9 µM.

**Q.** And the TGI [14]?
**A.** The TGI was 39.1 µM.

**Q.** What about the GI50 [15] of the same molecule?
**A.** The GI50 was 13.7 µM.

**Q.** And the TGI [15]?
**A.** Its TGI is 41.2 µM.

**Q.** What about the GI50 [16] of the same molecule?
**A.** The GI50 was 26.4 µM.

**Q.** And the TGI [16]?
**A.** Its TGI is greater than 100 µM.

**Q.** And the GI50 [17]?
**A.** Its GI50 is 14.5 µM.

**Q.** What about the TGI [17] of the same molecule?
**A.** Its TGI is 30.2 µM.

**Q.** And the GI50 [18]?
**A.** The GI50 was 31.3 µM.

**Q.** And the TGI [18]?
**A.** The TGI was greater than 100 µM.

**Q.** What about the GI50 [19] of the same molecule?
**A.** Its GI50 is greater than 100 µM.

**Q.** And the TGI [19]?
**A.** Its TGI is greater than 100 µM.

**Q.** What about the GI50 [20] of the same molecule?
**A.** Its GI50 is greater than 100 µM.

**Q.** What about the TGI [20] of the same molecule?
**A.** The TGI was greater than 100 µM.

**Q.** What about the GI50 [21] of the same molecule?
**A.** The GI50 was 37.7 µM.

**Q.** And the TGI [21]?
**A.** Its TGI is greater than 100 µM.

**Q.** And the GI50 [22]?
**A.** Its GI50 is 4.36 µM.

**Q.** And the TGI [22]?
**A.** Its TGI is greater than 100 µM.

**Q.** And the GI50 [23]?
**A.** The GI50 was 6.93 µM.

**Q.** And the TGI [23]?
**A.** Its TGI is 21.9 µM.

**Q.** What about the GI50 [24] of the same molecule?
**A.** The GI50 was 34 µM.

**Q.** And the TGI [24]?
**A.** The TGI was greater than 100 µM.

**Q.** What about the GI50 [25] of the same molecule?
**A.** Its GI50 is 26.5 µM.

**Q.** What about the TGI [25] of the same molecule?
**A.** The TGI was greater than 100 µM.

**Q.** What about the GI50 [26] of the same molecule?
**A.** The GI50 was 5.72 µM.

**Q.** And the TGI [26]?
**A.** Its TGI is 28.9 µM.

**Q.** And the GI50 [27]?
**A.** The GI50 was 23.3 µM.

**Q.** What about the TGI [27] of the same molecule?
**A.** Its TGI is greater than 100 µM.

**Q.** What about the GI50 [28] of the same molecule?
**A.** Its GI50 is 17.7 µM.

**Q.** And the TGI [28]?
**A.** The TGI was 72.3 µM.

**Q.** And the GI50 [29]?
**A.** The GI50 was 12.8 µM.

**Q.** And the TGI [29]?
**A.** The TGI was 64.8 µM.
